From ChEMBL document CHEMBL1154784, “Discovery of potential ZAP-70 kinase inhibitors: pharmacophore design, database screening and docking studies” (Eur J Med Chem, 2009)

Molecular target: T1, Tyrosine-protein kinase ZAP-70 (Homo sapiens, UniProt P43403)
T1 sequence (P43403 whole entry): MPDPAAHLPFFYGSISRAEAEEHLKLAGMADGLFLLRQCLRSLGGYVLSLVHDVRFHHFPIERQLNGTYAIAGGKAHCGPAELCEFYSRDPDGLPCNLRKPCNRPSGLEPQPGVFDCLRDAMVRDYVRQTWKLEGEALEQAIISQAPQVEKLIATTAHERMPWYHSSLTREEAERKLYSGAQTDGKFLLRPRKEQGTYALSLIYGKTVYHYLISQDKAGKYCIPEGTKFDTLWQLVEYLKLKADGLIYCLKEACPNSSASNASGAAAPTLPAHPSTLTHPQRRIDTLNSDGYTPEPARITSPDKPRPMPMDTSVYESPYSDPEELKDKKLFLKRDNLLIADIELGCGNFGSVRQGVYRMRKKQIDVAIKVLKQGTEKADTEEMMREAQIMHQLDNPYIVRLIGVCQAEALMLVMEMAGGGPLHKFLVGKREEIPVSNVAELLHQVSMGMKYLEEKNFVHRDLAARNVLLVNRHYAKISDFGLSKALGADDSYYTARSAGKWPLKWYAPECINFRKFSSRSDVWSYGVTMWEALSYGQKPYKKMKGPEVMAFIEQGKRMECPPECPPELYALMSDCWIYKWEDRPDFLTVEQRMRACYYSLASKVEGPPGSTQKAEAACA
Experiment: Inhibition of human GST-fused ZAP-70 expressed in Sf9 cells

Row | SMILES | IC50 [µM]
1 | Cc1c(CCC(=O)O)c[nH]c1/C=C1\C(=O)Nc2ccccc21 | 25
2 | Cc1[nH]c(/C=C2\C(=O)Nc3ccccc32)c(C)c1CCC(=O)O [ORANTINIB] | 28.4
